Data taken from patent publication US20200170247A1, “HAND DISINFECTANTS” (priority 2014, published 2020).

Tested on: microbial load on the hands
Assay: hand disinfectant experiment according to EN 1500
Assay type: in vivo
Conditions: EN 1500, six samples per product; reference 60% 2-propanol (vol/vol)
From the text: The state of the art for hand disinfectants is described by the test methods, in which an agent is examined in regard to its efficiency. Currently, all agents, which are to be approved for hygienic hand disinfection have to be examined according to standard EN1500. The EN 1500 uses as a microbicidal reference substance 60% 2-propanol (vol/vol) in water. […] In these cases, the effectiveness of alcoholic hand disinfectants with or without the addition of quaternary ammonium compounds is more or less the same. It has also been known that products are possible, which contain as an active agent about 4% of a quaternary ammonium compound or a guanidine and contain, apart from this compound, solubilizers like propylene glycol, butylene glycol and other polyalcohols, so that the products have a degreasing effect on the skin. Unfortunately, all of these products were effective only according to the new standards EN 1499, hand decontamination, which have to meet less stringent requirements than the EN 1500. Agents, which only have to meet the requirements of the EN1499 have to be better than soap in a comparative test. Whereas for passing the EN 1500, in general, a microbial reduction of 4.5 log increments (i.e., a 4.5 log reduction) is required, passing the EN 1499 in general requires 3 log increments (i.e., a 3 log reduction). This is only 3% of the reduction required by the EN 1500. […]

## CC(C)O [60% 2-propanol (vol/vol), 2-propanol]
  Reduction factor: 4.1-4.6
